Results as given in the supplement of paper PMC10307832.

Key:
Assay in all cases: relative viability (nuclei count vs DMSO), 5 days (fraction); higher = more cells survive
AZ505 + Luminespib = compound: C1CCC(CC1)N(CCNCCC2=C3C(=C(C=C2)O)NC(=O)CO3)C(=O)CCNCCC4=CC(=C(C=C4)Cl)Cl [AZ505] + CCNC(=O)c1noc(-c2cc(C(C)C)c(O)cc2O)c1-c1ccc(CN2CCOCC2)cc1 [Luminespib] (partner 0.01 µM)
In short: (§1)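 Relative viability equals treated-well nuclei counts divided by vehicle-well nuclei counts. Counts came from 4× images of lung cancer cell lines grown in 1536-well plates for 5 days after pin-tool dosing on the day after seeding. Dosing used one drug alone or a fixed anchor-drug dose plus five library-drug doses (not always all listed) in √10 steps, and values are medians of duplicate plates.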

Dactolisib + AZD7762 = compound: Cn1c(=O)n(-c2ccc(C(C)(C)C#N)cc2)c2c3cc(-c4cnc5ccccc5c4)ccc3ncc21 [Dactolisib] + NC(=O)Nc1cc(-c2cccc(F)c2)sc1C(=O)N[C@H]1CCCNC1 [AZD7762] (partner 0.2 µM)
In short: as §1

Dactolisib + OSI-027 = compound: Cn1c(=O)n(-c2ccc(C(C)(C)C#N)cc2)c2c3cc(-c4cnc5ccccc5c4)ccc3ncc21 [Dactolisib] + COc1cccc2cc(-c3nc([C@H]4CC[C@H](C(=O)O)CC4)n4ncnc(N)c34)[nH]c12 [OSI-027] (partner 0.5 µM)
In short: as §1

AZ505 + Pictilisib = compound: C1CCC(CC1)N(CCNCCC2=C3C(=C(C=C2)O)NC(=O)CO3)C(=O)CCNCCC4=CC(=C(C=C4)Cl)Cl [AZ505] + CS(=O)(=O)N1CCN(Cc2cc3nc(-c4cccc5[nH]ncc45)nc(N4CCOCC4)c3s2)CC1 [Pictilisib] (partner 1 µM)
In short: as §1

Cell Line | relative viability (AZ505 + Luminespib; first compound 0.08 µM) | relative viability (AZ505 + Luminespib; first compound 0.253 µM) | relative viability (AZ505 + Luminespib; first compound 0.8 µM) | relative viability (AZ505 + Luminespib; first compound 2.53 µM) | relative viability (AZ505 + Luminespib; first compound 8 µM) | relative viability (Dactolisib + AZD7762; first compound 0.002 µM) | relative viability (Dactolisib + AZD7762; first compound 0.006325 µM) | relative viability (Dactolisib + AZD7762; first compound 0.02 µM) | relative viability (Dactolisib + AZD7762; first compound 0.06325 µM) | relative viability (Dactolisib + AZD7762; first compound 0.2 µM) | relative viability (Dactolisib + OSI-027; first compound 0.002 µM) | relative viability (Dactolisib + OSI-027; first compound 0.006325 µM) | relative viability (Dactolisib + OSI-027; first compound 0.02 µM) | relative viability (Dactolisib + OSI-027; first compound 0.06325 µM) | relative viability (Dactolisib + OSI-027; first compound 0.2 µM) | relative viability (AZ505 + Pictilisib; first compound 0.08 µM) | relative viability (AZ505 + Pictilisib; first compound 0.253 µM) | relative viability (AZ505 + Pictilisib; first compound 0.8 µM) | relative viability (AZ505 + Pictilisib; first compound 2.53 µM) | relative viability (AZ505 + Pictilisib; first compound 8 µM)
NCI-H1975 | 0.198 | 0.197 | 0.197 | 0.162 | 0.2 | 0.659 | 0.695 | 0.63 | 0.488 | 0.388 | 0.676 | 0.676 | 0.591 | 0.297 | 0.244 | 0.264 | 0.303 | 0.267 | 0.277 | 0.283
NCI-H1993 | 0.842 | 0.795 | 0.716 | 0.911 | 0.861 | 0.735 | 0.507 | 0.53 | 0.335 | 0.387 | 0.596 | 0.496 | 0.615 | 0.469 | 0.589 | 0.679 | 0.798 | 0.807 | 0.768 | 0.776
NCI-H2085 | 0.378 | 0.41 | 0.423 | 0.4 | 0.403 | 0.984 | 0.9 | 0.877 | 0.731 | 0.281 | 0.737 | 0.609 | 0.663 | 0.319 | 0.269 | 0.444 | 0.39 | 0.502 | 0.435 | 0.531
NCI-H2087 | 0.171 | 0.191 | 0.217 | 0.154 | 0.238 | 1.24 | 1.35 | 1.67 | 0.707 | 0.597 | 1.05 | 0.572 | 0.53 | 0.43 | 0.252 | 0.679 | 0.703 | 0.797 | 0.738 | 0.828
NCI-H2126 | 0.771 | 0.889 | 0.903 | 0.943 | 1.02 | 0.946 | 0.925 | 0.949 | 0.803 | 0.623 | 0.92 | 0.733 | 0.687 | 0.618 | 0.458 | 0.448 | 0.462 | 0.535 | 0.452 | 0.544
NCI-H2170 | 0.637 | 0.606 | 0.512 | 0.714 | 0.835 | 0.806 | 0.88 | 0.753 | 0.382 | 0.244 | 0.763 | 0.639 | 0.689 | 0.543 | 0.37 | 0.319 | 0.289 | 0.254 | 0.336 | 0.33
NCI-H2347 | 0.32 |  |  |  | 0.494 | 0.75 | 0.78 | 0.715 | 0.532 | 0.458 | 0.407 | 0.52 | 0.635 | 0.41 | 0.332 | 0.551 | 0.581 | 0.537 | 0.455 | 0.541
NCI-H2405 | 0.598 | 0.474 | 0.586 | 0.597 | 0.474 | 0.773 | 0.768 | 0.674 | 0.48 | 0.253 | 0.67 | 0.652 | 0.685 | 0.543 | 0.464 | 0.256 | 0.21 | 0.278 | 0.259 | 0.254
NCI-H3122 | 0.0979 | 0.0993 | 0.0953 | 0.0964 | 0.0997 | 0.971 | 0.892 | 1 | 0.953 | 0.488 | 0.903 | 0.976 | 0.948 | 0.739 | 0.373 | 0.561 | 0.573 | 0.665 | 0.409 | 0.643
PC-3 [JPC-3] | 0.65 | 0.697 | 0.661 | 0.635 | 0.739 | 0.841 | 0.788 | 0.685 | 0.666 | 0.353 | 0.862 | 0.86 | 0.72 | 0.851 | 0.768 | 0.597 | 0.702 | 0.676 | 0.706 | 0.827
PC-14 | 0.135 | 0.215 | 0.135 | 0.145 | 0.132 | 0.348 | 0.368 | 0.333 | 0.176 | 0.135 | 0.863 | 0.755 | 0.662 | 0.2 | 0.0989 | 0.449 | 0.754 | 0.658 | 0.643 | 0.703
RERF-LC-KJ | 1.24 | 1.33 | 1.22 | 1.2 | 1.03 | 1.02 | 0.922 | 0.818 | 0.572 | 0.489 | 0.699 | 0.604 | 0.585 | 0.397 | 0.433 | 0.578 | 0.591 | 0.448 | 0.565 | 0.666
